Measured values published in patent publication US12012637B2 (University of South Florida, priority 2017, dated 2024).

Key:
[1] = tested on: mir-498(46); details: previous work (ref. 7); cited from earlier work
[2] = tested on: iPSCs; experiment: qRT-PCR analysis of miRNAs and genes in propranolol-treated iPSCs; type: cell-based, human; details: 50 μM
[3] = tested on: hemangioma stem cells; details: cited from earlier work
[4] = tested on: iPSCs; experiment: WST1 proliferation assay; type: cell-based, human; details: 50 μM, 72 hours
Procedure: iPSCs were grown in 6 well plates and split 1:10 at 3-day intervals. […] WST1 proliferation assays were performed as previously described^29.

[5] = tested on: iPSCs; experiment: sRNAseq analysis of miRNA cistrons in propranolol-treated iPSCs
[6] = tested on: LIN28B; experiment: Dual immunofluorescence staining of LIN28B and GLUT1 in IH sections from propranolol-treated patients; type: in vivo, human
Procedure: Paraffin embedded infantile hemangioma and placenta sections (10 μm) were immunostained with primary antibodies against LIN28B 40 ug/ml (Abcam Cat #ab71415, RRID:AB_2135050) and GLUT1 3.4 ug/ml (Abcam Cat #ab40084, RRID:AB_2190927) overnight at 4° C. Sections were washed 3 times in PBS and incubated with 4 ug/ml secondary antibody Alexa Fluor 488 (Life Technologies Cat #a21202, RRID:AB_141607) for GLUT1 and alexa fluor cy3 (Life Technologies Cat #a10520, RRID:AB_2534029) for LIN28B for 30 minutes at room temperature. The sections were then washed with PBS and mounted with ProLong Diamond Antifade Mountant with DAPI, (Invitogen). Confocal images were obtained using an Olympus FV 1200 instrument. Immunofluorescence intensities were measured using ImageJ software as described^33. Fluorescence intensities were normalized to background intensities of secondary antibody only controls.

[7] = tested on: LIN28B; experiment: Immunoblot of LIN28B in propranolol-treated iPSCs; type: cell-based, human; details: 50 μM, 72 h, vs vehicle control
Procedure: (§1) Briefly, freshly dissected IH tissues were digested in 0.2% collagenase A (Roche Diagnostics, Indianapolis, IN). […] HemSCs were maintained in EBM-2 SingleQuot media Supplemented with 20% FBS.
Immunoblot analyses were performed as previously described^34 using 24 ng/ml antibodies against GAPDH (Cell Signaling Technology Cat #2118L RRID:AB_561053), […] antibodies against LIN28B (Abcam Cat #ab71415 RRID:AB_2135050) followed by IRDye 680 donkey anti-rabbit IGG secondary antibodies (0.2 μg/ml, LI-COR, 926-68073 RRID: AB_10954442). Immunoblots were imaged using the Odyssey Infrared Imaging System (LI-COR) and quantified using Image Studio software (LI-COR).

[8] = tested on: iPSCs; experiment: mRNA sequencing (RNAseq) and gene set enrichment analysis of propranolol-treated iPSCs; type: cell-based, human; details: 50 μM
Procedure: as §1
The cDNA library preparation was completed by second strand synthesis using SuperScript III, alkaline RNA hydrolysis, and PCR amplification for 10 cycles. mRNA libraries were prepared by utilizing the Illumina TruSeq Stranded mRNA LT protocol using 500 ng total RNA and NEB's Protoscript II reverse transcriptase for the first-strand cDNA synthesis according to the manufacturer's protocol. Individual RNAseq libraries were quality controlled on an Agilent TapeStation with a High Sensitivity D1000 ScreenTape. […] The libraries were sequenced on an Illumina NextSeq 500 sequencer 75-bp paired-end in mid-output mode in the Genomics Core Facility of The Rockefeller University.
The miRNA read annotation for sRNAseq experiments was performed as previously described^36, 37 using an slightly updated, manually curated miRNA reference based on previous work 38. […] The RNAseq data was aligned to the Human Genome Build 38 using the STAR aligner^40 (version 2.0.4j) allowing for two mismatches.
All data were tested for normality.

[9] = tested on: iPSCs; experiment: Bright field morphology of propranolol-treated iPSCs; type: cell-based, human; details: 50 μM, 72 h, compared to control
[10] = iPSCs, 50 μM, 72 h, vs vehicle control

Which “levels of mir-498(46) in propranolol-treated IH tumors vs proliferative IH” value [1] does the source give for `CC(C)NCC(O)COc1cccc2ccccc12` (centres unmarked) [Propranolol] here?
Its value is “significantly lower levels”.

What about the “SERPINE1 increased expression (qRT-PCR)” value ([2]; 72 h) of the same molecule?
The value was 8.4 fold.

What about the “TWIST1 increased expression (qRT-PCR)” value ([2]; 72 h) of the same molecule?
The value was 5 fold.

What about the “LIN28B mRNA levels” value ([2]; 72 h, data not shown) of the same molecule?
The value was “no significant differences”.

What about the “increase in let-7a expression (qRT-PCR)” value ([2]; 72 hr) of the same molecule?
The value was > 1. 65 fold.

What about the “miR-515-5p expression (qRT-PCR)” value ([2]; 72 hr) of the same molecule?
The value was “significant reduction”.

What about the “miR-517a expression (qRT-PCR)” value ([2]; 72 hr) of the same molecule?
Its value is “significant reduction”.

And the “miR-518C expression (qRT-PCR)” value ([2]; 72 hr)?
Its value is “significant reduction”.

And the “miR-519d expression (qRT-PCR)” value ([2]; 72 hr)?
Its value is “significant reduction”.

What about the “adipogenesis in hemangioma stem cells” value [3] of the same molecule?
Its value is “induce adipogenesis”.

What about the “decrease in cell proliferation” value [4] of the same molecule?
The value was 33%.

And the “downregulation of mir-498(46)” value [5, 10]?
Its value is 1.6 fold.

What about the “increase in expression of cistron mir-98(13)” value [5, 10] of the same molecule?
Its value is 3.2 fold.

And the “Normalized frequency, cistron mir-10a(1)” value ([5]; propranolol-treated iPSCs)?
The value was 0.0168%.

And the “Normalized frequency, cistron mir-10b(1)” value ([5]; propranolol-treated iPSCs)?
The value was 0.0176%.

And the “Normalized frequency, cistron mir-21(1)” value ([5]; propranolol-treated iPSCs)?
Its value is 10.5844%.

And the “Normalized frequency, cistron mir-33b(1)” value ([5]; propranolol-treated iPSCs)?
The value was 0.002%.

And the “Normalized frequency, cistron mir-98(13)” value ([5]; propranolol-treated iPSCs)?
The value was 0.2313%.

And the “Normalized frequency, cistron mir-188(8)” value ([5]; propranolol-treated iPSCs)?
The value was 0.1459%.

And the “Normalized frequency, cistron mir-488(1)” value ([5]; propranolol-treated iPSCs)?
The value was 0.0022%.

What about the “Normalized frequency, cistron mir-498(46)” value ([5]; propranolol-treated iPSCs) of the same molecule?
Its value is 0.4075%.

What about the “Normalized frequency, cistron mir-1226(1)” value ([5]; propranolol-treated iPSCs) of the same molecule?
The value was 0%.

What about the “Normalized frequency, cistron mir-3155(1)” value ([5]; propranolol-treated iPSCs) of the same molecule?
Its value is 0.0014%.

And the “LIN28B and GLUT1 immunostaining” value ([6]; propranolol-treated proliferative IH compared to untreated proliferative IH)?
Its value is “markedly decreased”.

And the “LIN28B to GLUT1 immunofluorescence signal intensity, increase in proliferative IH compared to propranolol treated IH” value ([6]; untreated proliferative IH vs propranolol treated IH samples)?
The value was ~2 fold.

What about the “decrease in LIN28B protein levels” value [7] of the same molecule?
Its value is 2.3 fold.

What about the “SERPINE1 increase (RNAseq)” value ([8]; 72 h) of the same molecule?
The value was 12 fold.

What about the “TWIST1 increase (RNAseq)” value ([8]; 72 h) of the same molecule?
Its value is 2.9 fold.

And the “gene set analysis: TGF-β signaling pathway” value ([8]; 72 h, FDR 0.06)?
The value was “upregulation”.

And the “gene set analysis: adipogenesis pathway” value ([8]; 72 h, FDR 0.09)?
The value was “upregulation”.

And the “gene set analysis: E2F targets” value ([8]; 72 h, FDR<0.25)?
The value was “downregulation”.

What about the “gene set analysis: G2M checkpoint” value ([8]; 72 h, FDR<0.25) of the same molecule?
Its value is “downregulation”.

What about the “gene set analysis: mitotic spindle pathway” value ([8]; 72 h, FDR<0.25) of the same molecule?
The value was “downregulation”.

What about the “gene set enrichment: genes defining EMT” value ([8]; 72 h vs control, FDR 0.00046) of the same molecule?
Its value is “enrichment”.

What about the “EMT associated morphological changes” value [9] of the same molecule?
Its value is “more elongated cellular shape”.
